Test results: patent US6689803B2, “Compositions and methods for treating surgical adhesions” (Angiotech Pharmaceuticals, Inc., priority 1996, dated 2004)
pIC50: −log10 of the molar value. Like-named read-outs stand apart in the source and are kept apart here.

What was measured:
[1] = tested on: restenosis / intimal hyperplasia; test: Rat carotid artery balloon injury model of restenosis, perivascular treatment; format: in vivo; conditions: 10% camptothecin-loaded EVA film, 14 days, two animals
Description: WISTAR rats weighing 250 to 300 g were anesthetized by the intramuscular injection of Innovar (0.33 ml/kg). Once sedated they were then placed under Halothane anesthesia After general anesthesia was established, fur over the neck region was shaved, the skin clamped and swabbed with betadine. A vertical incision was made over the left carotid artery and the external carotid artery exposed. Two ligatures were placed around the external carotid artery and a transverse arteriotomy was made. […] The endothelium was denuded by passing the inflated balloon up and down the carotid artery three times. The catheter was then removed and the ligature tied off on the left external carotid artery. […] The wound was then closed.

LNCaP cells = test: LNCaP cell growth (crystal violet); format: cell-based, human; conditions: inferred from toxicity at 0.001 nM
Description: LNCaP cells were seeded at concentrations of 2×10^3 and 1×10^3 cells/well respectively in 96 well plates. […] After incubation, the cells were fixed with 1% glutaraldehyde solution, and stained for 5 minutes with 0.5% crystal violet. The dye was successively eluted with 100 μl of buffer solution and the absorbance was read on a Titertek Multiskan microplate reader using a wavelength of 492 nm Absorbance. Cell growth was expressed as a percentage relative to control wells in the absence of the compound (set at 100%).

[2] = tested on: chick chorioallantoic membrane (CAM) vasculature; conditions: PCL paste (3 mg)
aggrecan mRNA = test: Expression of proteoglycan (aggrecan) in chondrocytes; format: cell-based, calf; conditions: all concentrations evaluated (10^−7 M to 10^−4 M)
Description: Primary chondrocyte cultures were freshly isolated from calf cartilage. The cells were plated at 2.5×10^6 per ml in 100×20 mm culture dishes and incubated in Ham's F12 medium containing 5% FBS overnight at 37° C. The cells were starved in serum-free medium overnight and then treated with anti-microtubule agents at various concentrations (10^−7 M, 10^−6 M, 10^−5 M and 10^−4 M) for 6 hours. […] Total RNA was isolated by the acidified guanidine isothiocyanate method and subjected to electrophoresis on a denatured gel. […] The exposed films were scanned and quantitatively analyzed with ImageQuant.

synoviocytes = test: Proliferation assay (MTT); format: cell-based; conditions: 24-hour exposure
Description: On day one, 5-10×10^4 synoviocytes were plated per well (96-well plate). Column #1 was kept free of cells (blank). On day 2, the plate was flicked to discard the medium and 200 μl of medium containing various concentrations of drug was added. […] There was no drug added to columns #1 and #2 (blank and untreated control, respectively). The medium containing the drug was discarded and 200 μl of fresh complete medium was added. The cells were then left to grow for an additional 3 to 4 days. On day five, 20 μl of dimethylthiazol diphenyltetrazolium bromide salt (MTT) (5 mg/ml PBS) was added and allowed to incubate for 4 hours at 37° C. The medium was decanted and 200 μl of DMSO was added.
The data were expressed as the % of survival which was obtained by dividing the number of cells remaining after treatment by the number of cells in the untreated control column #2 (the number of cells was obtained from a standard done prior to the assay).

NF-κB = NF-κB activity (cell-based) reporter assay in NIH-3T3; design: species or system murine; conditions: 6-hour and 24-hour treatments
Description: IL-1 and TNF were both identified as being proinflammatory cytokines that activate the transcription of genes driven by a transcription factor named NF-κB also involved in inflammatory processes. The inflammatory effect of IL-1 and TNF can therefore be indirectly assessed by means of a reporter gene assay (NF-κB) responding to IL-1 and TNF stimulation.
On day one, 5×10^4 NIH-3T3 (murine fibroblast), stably transfected with a NF-κB reporter construct (Luciferase, Promega Corp.), were plated per well (24-well plate). Once confluent (on day 3-4), cells were starved by replacing the complete medium with 1 ml of serum-free medium. Following a 24-hour starvation, cells were treated with various concentrations of anti-microtubule agents 6 hours prior to the addition of IL-1 (20 ng/ml) and TNF (20 ng/ml). Cells were exposed to IL-1 and TNF for 1 hour and 16 hours and NF-κB activity measured 24 hours later. On day five, the medium was discarded and the cells were rinsed once with PBS. Cells were then extracted for 15 minutes with 250 μl of lysis buffer (Promega Corp., Wisconsin). NF-κB transcriptional activity was assessed by adding 25 μl of luciferase substrate to a tube containing 2.5 μl of cell extract. The tube was immediately inserted in a luminometer (Turner Designs) and light emission measured for 10 seconds. The luciferase data were then normalized for protein concentration.

collagenase (MMP-1) mRNA = test: IL-1 induced collagenase mRNA expression in chondrocytes (Northern blot); format: cell-based, calf; conditions: pre-incubation 6 hours, IL-1 20 ng/ml 18 hours
Description: Total RNA was isolated, and the MMP-1 mRNA levels were determined by Northern blot analysis. The blots were subsequently stripped and reprobed with ^32P-radiolabeled rat GAPDH cDNA, which was used as a housekeeping gene. The results shown are representative of four independent experiments. Quantitation of collagenase-1 and stromelysin-expression mRNA levels. The MMP-1 and MMP-3 expression levels were normalized with GAPDH.
Primary chondrocyte cultures were freshly isolated from calf cartilage. The cells were plated at 2.5×10^6 per ml in 100×20 mm culture dishes and incubated in Ham's F12 medium containing 5% FBS overnight at 37° C. […] IL-1 (20 ng/ml) was then added to each plate and the plates incubated for an additional 18 hours. Total RNA was isolated by the acidified guanidine isothiocyanate method and subjected to electrophoresis on a denatured gel. Denatured RNA samples (15 μg) were analyzed by gel electrophoresis in a 1% denatured gel, transferred to a nylon membrane and hydridized with the ^32P-labeled collagenase cDNA probe. ^32P-labeled glyceraldehyde phosphate […] (GAPDH) cDNA as an internal standard to ensure roughly equal loading. The exposed films were scanned and quantitatively analyzed with ImageQuant.

Row | SMILES | intimal hyperplasia [1] | EC50 (LNCaP cells) | Inhibition/n ([2]; 0.25%) | Inhibition/n ([2]; 1%) | Inhibition/n ([2]; 5%) | expression of aggrecan (aggrecan mRNA) | pIC50 (synoviocytes) | inhibitory effect on IL-1- and TNF-induced NF-κB activity (NF-κB) | prevented IL-1-induced collagenase expression at concentrations as low as (collagenase (MMP-1) mRNA)
1 | CC[C@@]1(O)C(=O)OCc2c1cc1n(c2=O)Cc2cc3ccccc3nc2-1 [camptothecin] | completely inhibited intimal hyperplasia | femtomolar concentration range | ¾ | ⅔ | ⅘ | – | – | – | –
2 | Nc1ncnc2c1ccn2[C@@H]1O[C@H](CO)[C@@H](O)[C@H]1O [tubercidin, 7-deazaadenosine] | – | – | – | ⅓ | ⅔ | did not affect the expression of aggrecan | ~7.35 | around 10 μM | 100 nM
